Test results from patent publication US12685777B2, “Compositions, systems, and methods for modulating a target gene” (The Board of Trustees of the Leland Stanford Junior …, priority 2022, dated 2026).

Tests used:
[1] = biological target: T1, bromodomain 1 of BRD4 and BTB domain of BCL6 (Homo sapiens, UniProt O60885+P41182, C67R/C84N/C8Q); test: TR-FRET assay of ternary complex formation; format: binding; details: 1 hr at room temperature, 520 nm/490 nm ratio
T1 construct: contains amino acids 5-129 with three mutations, C8Q, C67R, C84N
Method: Reaction was incubated for 1 hr at room temperature, and subsequently the fluorescence at 520 nm and 490 nm was measured. The 520 nm/490 nm ratio is plotted respective to DMSO control. The two lower curves are performed by addition of Neg1 and Neg2 instead of JWZ-7-7. […] The structure of JWZ-7-7 is provided in FIG. 2 and the structures of Neg1 and Neg2 are provided below:
Each reaction contained 100 nM BRD4^BD1, 100 nM BCL6BTB-Avi-Biot, 20 nM Streptavidin-FITC (Thermo #SA1001), and 1:400 anti-6×His terbium antibody (PerkinElmer #61H12TLF) in 10 μL of buffer containing 20 mM HEPES, 150 mM NaCl, 0.1% BSA, 0.1% NP-40, and 1 mM TCEP in a 384-well plate. Protein was incubated with drug digitally dispensed (Tecan D300e) for 1 hour in the dark at room temperature before excitation at 337 nm and measurement of emission at 520 nm (FITC) and 490 nm (terbium) with a PHERAstar FS plate reader (BMG Labtech). The ratio of signal at 520 nm to 490 nm was calculated and normalized to DMSO-treated conditions, and plotted.

NCI-H2196 = test: Dose response on viability of small cell lung cancer line, resazurin assay; format: cell-based; details: Homo sapiens; NCI-H2196, 72 h treatment
Method: (§1) IC50 of JWZ-7-7, BI-3812, JQ1, and combinations were calculated based on a dose response curve on three small cell lung cancer lines (FIG. 5). The dose response curve on viability was performed in technical replicates and biological triplicate after treating cells for 72 hours across a broad range of concentrations via serial dilutions. Viable cells were measured after treatment via a resazurin assay. The signal for viable assays was normalized to the DMSO treated negative control. A four-parameter non-linear fit was performed to fit a curve to calculate the IC50 for each of the cell lines. The table below describes the calculated IC50 across JWZ-7-7, JQ1, BI-3812 and combination of JQ1 and BI-3812 after 72 h treatment in technical replicates and biological triplicates.

NCI-H1105 = test: as above; format: cell-based; details: NCI-H1105, 72 h treatment; read-out: IC50
Method: as §1

DMS-79 = test: as above; format: cell-based; details: Homo sapiens; DMS-79, 72 h treatment
Method: as §1

| Structure (SMILES) | Ternary complex formation (TR-FRET) [1] | other results |
| --- | --- | --- |
| CNC(=O)COc1cc2cc(Nc3nc(N4CCN(CCCCCCCCNC(=O)C[C@@H]5N=C(c6ccc(Cl)cc6)c6c(sc(C)c6C)-n6c(C)nnc65)CC4)ncc3Cl)cc(OC)c2n(C)c1=O [JWZ-7-23, (S)-2-((6-((5-chloro-2-(4-(8-(2-(4-(4-chlorophenyl)-2,3,9-trimethyl-6H-thieno[3,2-f][1,2,4]triazolo[4,3-a][1,4]diazepin-6-yl)acetamido)octyl)piperazin-1-yl)pyrimidin-4-yl)amino)-8-methoxy-1-methyl-2-oxo-1,2-dihydroquinolin-3-yl)oxy)-N-methylacetamide] | showed ternary complex formation | – |
| CNC(=O)COc1cc2cc(Nc3nc(N4CCC(C(=O)NCCCCCCNC(=O)C[C@@H]5N=C(c6ccc(Cl)cc6)c6c(sc(C)c6C)-n6c(C)nnc65)CC4)ncc3Cl)cc(OC)c2n(C)c1=O [JWZ-7-6, (S)-1-(5-chloro-4-((8-methoxy-1-methyl-3-(2-(methylamino)-2-oxoethoxy)-2-oxo-1,2-dihydroquinolin-6-yl)amino)pyrimidin-2-yl)-N-(6-(2-(4-(4-chlorophenyl)-2,3,9-trimethyl-6H-thieno[3,2-f][1,2,4]triazolo[4,3-a][1,4]diazepin-6-yl)acetamido)hexyl)piperidine-4-carboxamide] | showed ternary complex formation | – |
| CNC(=O)COc1cc2cc(Nc3nc(N4CCC(C(=O)NCCN5CCN(CCNC(=O)C[C@@H]6N=C(c7ccc(Cl)cc7)c7c(sc(C)c7C)-n7c(C)nnc76)CC5)CC4)ncc3Cl)cc(OC)c2n(C)c1=O [JWZ-7-13, (S)-1-(5-chloro-4-((8-methoxy-1-methyl-3-(2-(methylamino)-2-oxoethoxy)-2-oxo-1,2-dihydroquinolin-6-yl)amino)pyrimidin-2-yl)-N-(2-(4-(2-(2-(4-(4-chlorophenyl)-2,3,9-trimethyl-6H-thieno[3,2-f][1,2,4]triazolo[4,3-a][1,4]diazepin-6-yl)acetamido)ethyl)piperazin-1-yl)ethyl)piperidine-4-carboxamide] | showed ternary complex formation | – |
| CNC(=O)COc1cc2cc(Nc3nc(N4CCC(C(=O)N5CCC6(CC5)CN(CCNC(=O)C[C@@H]5N=C(c7ccc(Cl)cc7)c7c(sc(C)c7C)-n7c(C)nnc75)C6)CC4)ncc3Cl)cc(OC)c2n(C)c1=O [JWZ-7-98, (S)-2-((6-((5-chloro-2-(4-(2-(2-(2-(4-(4-chlorophenyl)-2,3,9-trimethyl-6H-thieno[3,2-f][1,2,4]triazolo[4,3-a][1,4]diazepin-6-yl)acetamido)ethyl)-2,7-diazaspiro[3.5]nonane-7-carbonyl)piperidin-1-yl)pyrimidin-4-yl)amino)-8-methoxy-1-methyl-2-oxo-1,2-dihydroquinolin-3-yl)oxy)-N-methylacetamide] | showed ternary complex formation | – |
| CNC(=O)COc1cc2cc(Nc3nc(N4CCC(C(=O)NCCCN(C)CCCNC(=O)C[C@@H]5N=C(c6ccc(Cl)cc6)c6c(sc(C)c6C)-n6c(C)nnc65)CC4)ncc3Cl)cc(OC)c2n(C)c1=O [JWZ-7-100, (S)-1-(5-chloro-4-((8-methoxy-1-methyl-3-(2-(methylamino)-2-oxoethoxy)-2-oxo-1,2-dihydroquinolin-6-yl)amino)pyrimidin-2-yl)-N-(3-((3-(2-(4-(4-chlorophenyl)-2,3,9-trimethyl-6H-thieno[3,2-f][1,2,4]triazolo[4,3-a][1,4]diazepin-6-yl)acetamido)propyl)(methyl)amino)propyl)piperidine-4-carboxamide] | showed ternary complex formation | – |
| CNC(=O)COc1cc2cc(Nc3nc(N4CCC(C(=O)NCCCCCCCCCCNC(=O)C[C@@H]5N=C(c6ccc(Cl)cc6)c6c(sc(C)c6C)-n6c(C)nnc65)CC4)ncc3Cl)cc(OC)c2n(C)c1=O [JWZ-7-20, (S)-1-(5-chloro-4-((8-methoxy-1-methyl-3-(2-(methylamino)-2-oxoethoxy)-2-oxo-1,2-dihydroquinolin-6-yl)amino)pyrimidin-2-yl)-N-(10-(2-(4-(4-chlorophenyl)-2,3,9-trimethyl-6H-thieno[3,2-f][1,2,4]triazolo[4,3-a][1,4]diazepin-6-yl)acetamido)decyl)piperidine-4-carboxamide] | showed ternary complex formation | – |
| CNC(=O)COc1cc2cc(Nc3nc(N4CCC(C(=O)NCCCCCCCCCNC(=O)C[C@@H]5N=C(c6ccc(Cl)cc6)c6c(sc(C)c6C)-n6c(C)nnc65)CC4)ncc3Cl)cc(OC)c2n(C)c1=O [JWZ-7-15, (S)-1-(5-chloro-4-((8-methoxy-1-methyl-3-(2-(methylamino)-2-oxoethoxy)-2-oxo-1,2-dihydroquinolin-6-yl)amino)pyrimidin-2-yl)-N-(9-(2-(4-(4-chlorophenyl)-2,3,9-trimethyl-6H-thieno[3,2-f][1,2,4]triazolo[4,3-a][1,4]diazepin-6-yl)acetamido)nonyl)piperidine-4-carboxamide] | showed ternary complex formation | – |
| CNC(=O)COc1cc2cc(Nc3nc(N4CCC(C(=O)N(C)C)CC4)ncc3Cl)cc(OC)c2n(C)c1=O [BI-3812] | – | IC50 (NCI-H2196): 3.5 µM; IC50 (NCI-H1105): 4.3 µM; IC50 (DMS-79): 6.1 µM |
| CNC(=O)COc1cc2cc(Nc3nc(N4CCC(C(=O)NCCCN5CCN(CCCNC(=O)C[C@@H]6N=C(c7ccc(Cl)cc7)c7c(sc(C)c7C)-n7c(C)nnc76)CC5)CC4)ncc3Cl)cc(OC)c2n(C)c1=O [JWZ-7-14, (S)-1-(5-chloro-4-((8-methoxy-1-methyl-3-(2-(methylamino)-2-oxoethoxy)-2-oxo-1,2-dihydroquinolin-6-yl)amino)pyrimidin-2-yl)-N-(3-(4-(3-(2-(4-(4-chlorophenyl)-2,3,9-trimethyl-6H-thieno[3,2-f][1,2,4]triazolo[4,3-a][1,4]diazepin-6-yl)acetamido)propyl)piperazin-1-yl)propyl)piperidine-4-carboxamide] | showed ternary complex formation | – |
| CNC(=O)COc1cc2cc(Nc3nc(N4CCN(CCCCCCCCCCCNC(=O)C[C@@H]5N=C(c6ccc(Cl)cc6)c6c(sc(C)c6C)-n6c(C)nnc65)CC4)ncc3Cl)cc(OC)c2n(C)c1=O [JWZ-7-22, (S)-2-((6-((5-chloro-2-(4-(11-(2-(4-(4-chlorophenyl)-2,3,9-trimethyl-6H-thieno[3,2-f][1,2,4]triazolo[4,3-a][1,4]diazepin-6-yl)acetamido)undecyl)piperazin-1-yl)pyrimidin-4-yl)amino)-8-methoxy-1-methyl-2-oxo-1,2-dihydroquinolin-3-yl)oxy)-N-methylacetamide] | showed ternary complex formation | – |
| CNC(=O)COc1cc2cc(Nc3nc(N4CCC(C(=O)NCCCOCCCNC(=O)C[C@@H]5N=C(c6ccc(Cl)cc6)c6c(sc(C)c6C)-n6c(C)nnc65)CC4)ncc3Cl)cc(OC)c2n(C)c1=O [JWZ-7-97, (S)-1-(5-chloro-4-((8-methoxy-1-methyl-3-(2-(methylamino)-2-oxoethoxy)-2-oxo-1,2-dihydroquinolin-6-yl)amino)pyrimidin-2-yl)-N-(3-(3-(2-(4-(4-chlorophenyl)-2,3,9-trimethyl-6H-thieno[3,2-f][1,2,4]triazolo[4,3-a][1,4]diazepin-6-yl)acetamido)propoxy)propyl)piperidine-4-carboxamide] | showed ternary complex formation | – |
